Measured values: patent publication US7148236B2, “Modulators of acetylcholine receptors” (Merck & Co., Inc., priority 2002, dated 2006)

Compound `CN1[C@@H]2CC[C@H]1C[C@H](Sc1cc3c(cc1Cl)[nH]c(=O)n3C)C2` has a melting point of 206.4 to 207.2 °C.
Compound `CC(C)n1c(=S)[nH]c2ccc(S[C@@H]3C[C@H]4CC[C@@H](C3)N4C)c(Cl)c21` has a melting point of 228.9 to 230.9 °C.
With `CN1[C@@H]2CC[C@H]1C[C@H](Sc1ccc3[nH]c(=O)[nH]c3c1)C2` the melting point was 178.5 to 181.6 °C.
In the case of `CN1[C@@H]2CC[C@H]1C[C@H](Sc1ccc3[nH]c(=O)n(C)c3c1Cl)C2.Cl`, the melting point is reported as greater than 260 °C.
Work on `CCCn1c(=S)[nH]c2ccc(S[C@@H]3C[C@H]4CC[C@@H](C3)N4C)c(Cl)c21` yielded a melting point of 131.4 to 133.9 °C.
Compound `CN1[C@@H]2CC[C@H]1C[C@H](Sc1ccc3[nH]c(=O)[nH]c(=O)c3c1)C2` has a melting point greater than 260 °C.
